Patent publication US7135326B2, “UDP-glucosyltransferases” (E. I. du Pont de Nemours and Company, priority 2002, dated 2006)

Assays:
[1] = system: Arabidopsis thaliana UDP-glucosyltransferase 75B1; conditions: 20° C.; Lim et al. 2002; cited from earlier work
[2] = system: Arabidopsis thaliana glucosyltransferase UGT84A1 (84A1, GT 3, SEQ ID NO:8); conditions: 20° C.; Lim et al. 2002; cited from earlier work
[3] = target: T1, Grape (Vitis sp.) UDP-glucosyltransferase (Grape GT), wild type, SEQ ID NO:18 (Vitis vinifera, UniProt F6H660); assay: Substrate inhibition of Grape GT in cell-free extract (initial rates, Table 2); assay type: biochemical; conditions: 10 mM pHBA; 25° C., pH 7.3, 10 mM UDP-glucose; data of Table 2
T1 construct: cell-free extract and purified recombinant protein
T1 sequence (F6H660 1-478): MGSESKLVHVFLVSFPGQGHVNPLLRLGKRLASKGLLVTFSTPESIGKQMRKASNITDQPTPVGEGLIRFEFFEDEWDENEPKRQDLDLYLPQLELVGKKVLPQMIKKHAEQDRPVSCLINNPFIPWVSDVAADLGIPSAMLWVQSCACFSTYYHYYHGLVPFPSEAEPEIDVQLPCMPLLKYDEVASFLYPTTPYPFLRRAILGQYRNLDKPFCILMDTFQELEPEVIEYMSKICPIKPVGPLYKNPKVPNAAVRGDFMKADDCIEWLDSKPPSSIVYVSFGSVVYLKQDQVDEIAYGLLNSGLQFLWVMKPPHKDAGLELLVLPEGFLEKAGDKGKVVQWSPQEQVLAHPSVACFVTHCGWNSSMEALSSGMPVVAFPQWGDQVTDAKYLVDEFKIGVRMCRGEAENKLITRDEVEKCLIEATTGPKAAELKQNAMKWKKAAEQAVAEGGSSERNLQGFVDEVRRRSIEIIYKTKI
Procedure: For protein production, the resulting recombinant strains were grown at 22° C. in 50 mL of LB media that contained kanamycin (50 μg/mL). At an A600 nm of ˜0.6, isopropyl-1-thio-β-D-galactopyranoside was added to a final concentration of 0.2 mM. Following a 22-h induction period at the same temperature, the cells were harvested by centrifugation and stored at −80° C. for subsequent manipulation as described below.
The frozen cell pellets were resuspended in 1.0 mL of a solution containing 100 mM Tris-HCl (pH 7.7), 5 mM MgSO4, 1 mM dithiothreitol, 0.03 mg/mL DNAse I, 0.5 mM phenylmethanesulfonyl fluoride, and passed once through a French pressure cell at 20,000 psi. […] Protein concentrations were determined by the Bradford Method using bovine serum albumin as a standard.
The second assay is based on the increase in absorbance at 368 nm that accompanies the formation of the glucose ester of sinapic acid. The experimental conditions were the same as those described above, but the test substrate was sinapic acid and product formation was calculated using an extinction coefficient of 5,570 M^−1 that was obtained with the authentic chemically synthesized compound under identical conditions. […]

[4] = target: T1, Grape (Vitis sp.) UDP-glucosyltransferase (Grape GT), wild type, SEQ ID NO:18; assay: Kinetic analysis of purified recombinant Grape GT (spectrophotometric assay at 304 nm); assay type: biochemical; conditions: saturated with pHBA; 25° C., pH 7.3, 10 mM UDP-glucose
Procedure: Turnover number for the present enzyme is determined according to principles well known in the art. […] Using the protein concentration as determined in μmols in the assay, one can determine how many μmols product are formed using 1.0 μmols enzyme in a fixed time period such as a second (i.e., how many times catalytic turnover occurred).
Initial rates of product formation were measured at 25° C. over a wide range of substrate concentrations using the spectrophotometric assay (see Example 4).

O=C(O)c1ccc(O)cc1 [pHBA, p-Hydroxybenzoic acid]
turnover number (formation of the pHBA ester glucoside) [1]: 0.73 sec^−1 | turnover number with pHBA [2]: ~0.21 sec^−1 | substrate inhibition (in words) [3]: little, if any, substrate inhibition | turnover number (kcat) [4]: ~10.9 s⁻¹
